# Results: patent publication US20220289766A1 (INFLAZOME LIMITED, priority 2019, published 2022)
# Assays:
# [1] = molecular target: T1, NLRP3 (Homo sapiens, UniProt Q96P20); test: Human whole blood IL-1β release assay; assay type: cell-based; set-up: Plate out 80 μl of whole blood containing 1 μg/ml of LPS in 96-well, clear bottom cell culture plate; from tissue; host or cells: human whole blood from healthy donors; conditions: LPS 1 μg/ml, compound 3 hrs, nigericin 10 μM 1 hr, IL-1β by AlphaLisa, read-out: HWB IC50
# T1 sequence (Q96P20 whole entry): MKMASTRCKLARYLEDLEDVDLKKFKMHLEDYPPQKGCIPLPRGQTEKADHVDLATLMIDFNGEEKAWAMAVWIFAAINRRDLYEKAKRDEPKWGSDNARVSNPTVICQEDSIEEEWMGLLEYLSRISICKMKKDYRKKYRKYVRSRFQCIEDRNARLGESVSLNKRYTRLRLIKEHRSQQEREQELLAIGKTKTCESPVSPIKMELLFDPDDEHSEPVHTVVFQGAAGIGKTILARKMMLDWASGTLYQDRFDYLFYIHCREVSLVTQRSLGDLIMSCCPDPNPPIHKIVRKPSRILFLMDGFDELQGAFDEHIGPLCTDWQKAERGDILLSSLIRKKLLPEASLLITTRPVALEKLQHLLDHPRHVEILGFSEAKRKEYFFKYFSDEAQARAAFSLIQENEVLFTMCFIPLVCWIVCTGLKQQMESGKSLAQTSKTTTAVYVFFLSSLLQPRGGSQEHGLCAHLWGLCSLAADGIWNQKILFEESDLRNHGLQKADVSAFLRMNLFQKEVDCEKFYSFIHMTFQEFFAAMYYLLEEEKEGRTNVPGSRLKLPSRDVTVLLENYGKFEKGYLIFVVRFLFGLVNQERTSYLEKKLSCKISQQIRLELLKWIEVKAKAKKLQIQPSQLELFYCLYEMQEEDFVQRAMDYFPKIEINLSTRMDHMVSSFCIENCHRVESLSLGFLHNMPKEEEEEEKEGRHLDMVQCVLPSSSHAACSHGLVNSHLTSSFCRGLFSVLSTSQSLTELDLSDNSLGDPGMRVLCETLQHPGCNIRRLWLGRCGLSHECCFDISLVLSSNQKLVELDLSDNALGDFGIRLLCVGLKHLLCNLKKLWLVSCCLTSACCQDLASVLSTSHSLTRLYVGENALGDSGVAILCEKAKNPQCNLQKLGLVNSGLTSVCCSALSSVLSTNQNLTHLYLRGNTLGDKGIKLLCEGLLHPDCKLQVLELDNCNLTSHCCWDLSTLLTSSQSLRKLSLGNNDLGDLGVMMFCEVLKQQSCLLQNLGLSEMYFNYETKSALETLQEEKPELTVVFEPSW
# Experimental: For systemic delivery, the ability to inhibit NLRP3 when the compounds are present within the bloodstream is of great importance. For this reason, the NLRP3 inhibitory activity of a number of compounds in human whole blood was investigated in accordance with the following protocol.
# Human whole blood in Li-heparin tubes was obtained from healthy donors from a volunteer donor panel. • 1. Plate out 80 μl of whole blood containing 1 μg/ml of LPS in 96-well, clear bottom cell culture plate (Corning #3585) • 2. Add 10 μl compound (8 points half-log dilution with 10 μM top dose) or vehicle (DMSO 0.1% FAC) to the appropriate wells • 3. Incubate for 3 hrs at 37° C., 5% CO2 • 4. Add 10 μl nigericin (Sigma #N7143) (10 μM FAC) to all wells • 5. Incubate for 1 hr at 37° C., 5% CO2 • 6. At the end of the incubation period, spin plates at 300×g for 5 mins to pellet cells and remove […] of supernatant and add to 96-well v-bottom plates for IL-1β analysis (note: these plates containing the supernatants can be stored at −80° C. to be analysed at a later date) • 7. IL-1β was measured according to the manufacturer protocol (Perkin Elmer-AlphaLisa IL-1 Kit AL220F-5000) • 8. IC50 data is fitted to a non-linear regression equation (log inhibitor vs response-variable slope 4-parameters)
# [2] = molecular target: T1, NLRP3; test: THP-1 cells pyroptosis assay; assay type: cell-based; set-up: Seed THP-1 cells (25,000 cells/well) containing 1.0 μg/ml LPS in 40 μl of RPMI medium; host or cells: THP-1 cells; conditions: LPS 1 μg/ml, compound 3 hrs, nigericin 5 μM 1 hr, resazurin readout
# Experimental: THP-1 cells (ATCC #TIB-202) were grown in RPMI containing L-glutamine (Gibco #11835) supplemented with 1 mM sodium pyruvate (Sigma #S8636) and penicillin (100 units/ml)/streptomycin (0.1 mg/ml) (Sigma #P4333) in 10% Fetal Bovine Serum (FBS) (Sigma #F0804). The cells were routinely passaged and grown to confluency (˜10^6 cells/ml). On the day of the experiment, THP-1 cells were harvested and resuspended into RPMI medium (without FBS). The cells were then counted and viability ([…]) checked by Trypan blue (Sigma #T8154). Appropriate dilutions were made to give a concentration of 625,000 cells/ml. To this diluted cell solution was added LPS (Sigma #L4524) to give a 1 μg/ml Final Assay Concentration (FAC). 40 μl of the final preparation was aliquoted into each well of a 96-well plate. The plate thus prepared was used for compound screening.
# The following method step-by-step assay was followed for compound screening. • 1. Seed THP-1 cells (25,000 cells/well) containing 1.0 μg/ml LPS in 40 μl of RPMI medium (without FBS) in 96-well, black walled, clear bottom cell culture plates coated with poly-D-lysine (VWR #734-0317) • 2. Add 5 μl compound (8 points half-log dilution, with 10 μM top dose) or vehicle (DMSO 0.1% FAC) to the appropriate wells • 3. Incubate for 3 hrs at 37° C., 5% CO2 • 4. Add 5 μl nigericin (Sigma #N7143) (FAC 5 μM) to all wells • 5. Incubate for 1 hr at 37° C., 5% CO2 • 6. At the end of the incubation period, spin plates at 300×g for 3 mins and remove supernatant • 7. Then add 50 μl of resazurin (Sigma #R7017) (FAC 100 μM resazurin in RPMI medium without FBS) and incubate plates for a further 1-2 hrs at 37° C. and 5% CO2 • 8. Plates were read in an Envision reader at Ex 560 nm and Em 590 nm • 9. IC50 data is fitted to a non-linear regression equation (log inhibitor vs response-variable slope 4-parameters)
Structure (SMILES),IC50 [1],IC50 [2]
"O=C1Nc2c(ccc3c2CCC3)-c2ccnc(c2)O[C@H]2COC[C@@H]2n2ccc(n2)S(=O)(=O)N1 (racemic) [Example 35, (anti)-21,24-dioxa-14λ^6-thia-11,13,18,26,30-pentaazahexacyclo-[23.3.1.1^15,18.0^2,10.0^5,9.0^19,23]-triaconta-1(28),2,4,9,15(30),16,25(29),26-octaene-12,14,14-trione]",100 to 500 nM,≤ 100 nM
"O=C1Nc2c3c(cc4c2C(CCCCCCn2ccc(n2)S(=O)(=O)N1)CC4)CCC3 (racemic) [Example 48, 5λ^6-thia-2,4,9,27-tetraazapentacyclo[14.9.1.1^6,9.0^19,26.0^21,25]heptacosa-1(25),6(27),7,19(26),20-pentaene-3,5,5-trione]",5000 to 10000 nM,1000 to 5000 nM
"O=C1Nc2c3c(cc4c2C(CCCCn2ccc(n2)S(=O)(=O)N1)CC4)CCC3 (racemic) [Example 49, 10λ^6-thia-6,11,13,25-tetraazapentacyclo[12.9.1.1^6,9.0^15,19.0^21,24]pentacosa-7,9(25),14,19,21(24)-pentaene-10,10,12-trione]",,1000 to 5000 nM
"O=C1Nc2c3c(cc4c2C(CCCCCn2ccc(n2)S(=O)(=O)N1)CC4)CCC3 (racemic) [Example 50, 5λ^6-thia-2,4,9,26-tetraazapentacyclo[13.9.1.1^6,9.0^18,25.0^20,24]hexacosa-1(24),6(26),7,18(25),19-pentaene-3,5,5-trione]",1000 to 5000 nM,100 to 500 nM
"O=C1Nc2c(ccc3c2CCC3)-c2ccnc(c2)OCCCCCn2ccc(n2)S(=O)(=O)N1 [Example 1, 24-Oxa-14λ^6-thia-11,13,18,26,30-pentaazapentacyclo-[23.3.1.1^15,18.0^2,10.0^5,9]-triaconta-1(29),2(10),3,5(9),15(30),16,25,27-octaene-12,14,14-trione]",1000 to 5000 nM,100 to 500 nM
"Cc1cc2c(c3c1-c1ccnc(c1)OCCCCCn1ccc(n1)S(=O)(=O)NC(=O)N3)CCC2 [Example 2, 3-methyl-24-oxa-14λ^6-thia-11,13,18,26,30-pentaaza-pentacyclo[23.3.1.1^15,18.0^2,10.0^5,9]-triaconta-1(29),2(10),3,5(9),15(30), 16,25,27-octaene-12,14,14-trione]",500 to 1000 nM,≤ 100 nM
"O=C1Nc2c(ccc3c2CCC3)-c2ccnc(c2)OCCOCCn2ccc(n2)S(=O)(=O)N1 [Example 3, 21,24-dioxa-14λ^6-thia-11,13,18,26,30-pentaazapentacyclo-[23.3.1.1^15,18.0^2,10.0^5,9]triaconta-1(29),2(10),3,5(9),15(30),16,25,27-octaene-12,14,14-trione]",100 to 500 nM,100 to 500 nM
"O=C1Nc2c(ccc3c2CCC3)-c2ccnc(c2)OCCCCn2ccc(n2)S(=O)(=O)N1 [Example 4, 23-oxa-14λ^6-thia-11,13,18,25,29-pentaazapentacyclo-[22.3.1.1^15,18.0^2,10.0^5,9]nonacosa-1(28),2(10),3,5(9),15(29),16,24,26-octaene-12,14,14-trione]",500 to 1000 nM,100 to 500 nM
"O=C1Nc2c(ccc3c2CCC3)-c2ccnc(c2)OCCCCCCn2ccc(n2)S(=O)(=O)N1 [Example 5, 25-oxa-14λ^6-thia-11,13,18,27,31-pentaazapentacyclo-[24.3.1.1^15,18.0^2,10.0^5,9]hentriaconta-1(30),2(10),3,5(9),15(31),16,26,28-octaene-12,14,14-trione]",1000 to 5000 nM,100 to 500 nM
"O=C1Nc2c(ccc3c2CCC3)-c2ccnc(c2)OCCCCCn2cc(cn2)S(=O)(=O)N1 [Example 6, 24-oxa-14λ^6-thia-11,13,17,18,26-pentaazapentacyclo-[23.3.1.1^15,18.0^2,10.0^5,9]triaconta-1(28),2,4,9,15(30),16,25(29),26-octaene-12,14,14-trione]",1000 to 5000 nM,100 to 500 nM
"O=C1Nc2c(ccc3c2CCC3)-c2ccnc(c2)OCCCn2ccc(n2)S(=O)(=O)N1 [Example 7, 22-oxa-14λ^6-thia-11,13,18,24,28-pentaazapentacyclo-[21.3.1.1^15,18.0^2,10.0^5,9]octacosa-1(26),2,4,9,15(28),16,23(27),24-octaene-12,14,14-trione]",500 to 1000 nM,500 to 1000 nM
"CN1CCOc2cc(ccn2)-c2ccc3c(c2NC(=O)NS(=O)(=O)c2ccn(n2)CC1)CCC3 [Example 8, 21-methyl-24-oxa-14λ^6-thia-11,13,18,21,26,30-hexaazapentacyclo-[23.3.1.1^15,18.0^2,10.0^5,9]triaconta-1(28),2,4,9,15(30),16,25(29),26-octaene-12,14,14-trione]",500 to 1000 nM,500 to 1000 nM
"O=C1Nc2c(ccc3c2CCC3)-c2cccc(c2)OCCCCCn2ccc(n2)S(=O)(=O)N1 [Example 9, 24-oxa-14λ^6-thia-11,13,18,30-tetraazapentacyclo-[23.3.1.1^15,18.0^2,10.0^5,9]triaconta-1(28),2,4,9,15(30),16,25(29),26-octaene-12,14,14-trione]",1000 to 5000 nM,500 to 1000 nM
"CC(C)c1cc(F)cc2c1NC(=O)NS(=O)(=O)c1ccn(n1)CCCCCOc1cc-2ccn1 [Example 10, 4-fluoro-6-(propan-2-yl)-21-oxa-11λ^6-thia-8,10,15,23,27-pentaazatetracyclo-[20.3.1.1^12,15.0^2,7]heptacosa-1(25),2(7),3,5,12(27),13,22(26),23-octaene-9,11,11-trione]",1000 to 5000 nM,500 to 1000 nM
"CC1(C)COc2cc(ccn2)-c2ccc3c(c2NC(=O)NS(=O)(=O)c2ccn1n2)CCC3 [Example 11, 19,19-dimethyl-21-oxa-14λ^6-thia-11,13,18,23,27-pentaaza-pentacyclo[20.3.1.1^15,18.0^2,10.0^5,9]-heptacosa-1(25),2,4,9,15(27),16,22(26),23-octaene-12,14,14-trione]",100 to 500 nM,100 to 500 nM
"CC1(C)COCCOc2cc(ccn2)-c2ccc3c(c2NC(=O)NS(=O)(=O)c2ccn1n2)CCC3 [Example 12, 19,19-dimethyl-21,24-dioxa-14λ^6-thia-11,13,18,26,30-pentaazapentacyclo-[23.3.1.1^15,18.0^2,10.0^5,9]triaconta-1(28),2,4,9,15(30),16,25(29),26-octaene-12,14,14-trione]",500 to 1000 nM,100 to 500 nM
"CN1CCOc2cc(ccn2)-c2ccc3c(c2NC(=O)NS(=O)(=O)c2ccn(n2)C(C)(C)C1=O)CCC3 [Example 13, 19,19,21-trimethyl-24-oxa-14λ^6-thia-11,13,18,21,26,30-hexaazapentacyclo-[23.3.1.1^15,18.0^2,10.0^5,9]triaconta-1(28),2,4,9,15(30),16,25(29),26-octaene-12,14,14,2o-tetrone]",500 to 1000 nM,100 to 500 nM
"O=C1Nc2c(ccc3c2CCC3)-c2ccnc(c2)OCc2cc(nn2C2CC2)S(=O)(=O)N1 [Example 16, 17-cyclopropyl-20-oxa-14λ^6-thia-11,13,16,17,22-pentaazapentacyclo-[19.3.1.1^15,18.0^2,10.0^5,9]hexacosa-1(24),2,4,9,15,18(26),21(25),22-octaene-12,14,14-trione]",,1000 to 5000 nM
"O=C1Nc2c(ccc3c2CCC3)-c2cccc(c2)OCCCn2ccc(n2)S(=O)(=O)N1 [Example 21, 22-oxa-14λ^6-thia-11,13,18,28-tetraazapentacyclo-[21.3.1.1^15,18.0^2,10.0^5,9]-octacosa-1(26),2,4,9,15(28),16,23(27),24-octaene-12,14,14-trione]",,1000 to 5000 nM
